In the NIST ThermoML archive (doi:10.1016/j.fluid.2017.12.010):

Assay: xn = mol fraction of the nth substance listed
Conditions: Liquid, Vibrating tube method

CCCCCCCCCCCC [dodecane] + CCCCCCCCCC
Conditions	mass density [kg/m3]
342.94 K, 80000 kPa, x2 = 0.2297	765
342.94 K, 80000 kPa, x2 = 0.6433	758
342.94 K, 100000 kPa, x2 = 0.2297	774
342.94 K, 100000 kPa, x2 = 0.6433	768
342.95 K, 100 kPa, x2 = 0.7841	698
342.95 K, 1000 kPa, x2 = 0.7841	699
342.96 K, 5000 kPa, x2 = 0.7841	703
342.97 K, 10000 kPa, x2 = 0.7841	708
342.97 K, 20000 kPa, x2 = 0.7841	717
342.98 K, 30000 kPa, x2 = 0.7841	724
342.98 K, 40000 kPa, x2 = 0.7841	732
342.99 K, 60000 kPa, x2 = 0.7841	744
343 K, 80000 kPa, x2 = 0.7841	756
343 K, 99990 kPa, x2 = 0.7841	766
352.58 K, 100 kPa, x2 = 0	707
352.58 K, 1000 kPa, x2 = 0	708
352.58 K, 5000 kPa, x2 = 0	712
352.58 K, 10000 kPa, x2 = 0	716
352.58 K, 20000 kPa, x2 = 0	725
352.58 K, 30000 kPa, x2 = 0	733
352.58 K, 40000 kPa, x2 = 0	740
352.58 K, 50000 kPa, x2 = 0	747
352.58 K, 60000 kPa, x2 = 0	753
352.58 K, 70000 kPa, x2 = 0	759
352.58 K, 80000 kPa, x2 = 0	764
352.58 K, 90000 kPa, x2 = 0	769
352.58 K, 100000 kPa, x2 = 0	774
352.73 K, 100 kPa, x2 = 0.2297	702
352.74 K, 1000 kPa, x2 = 0.2297	703
352.74 K, 5000 kPa, x2 = 0.2297	707
352.75 K, 10000 kPa, x2 = 0.2297	712
352.75 K, 20000 kPa, x2 = 0.2297	721
352.75 K, 30000 kPa, x2 = 0.2297	729
352.75 K, 40000 kPa, x2 = 0.2297	736
352.76 K, 60000 kPa, x2 = 0.2297	749
352.76 K, 80000 kPa, x2 = 0.2297	760
352.76 K, 100000 kPa, x2 = 0.2297	770
352.78 K, 100 kPa, x2 = 0.6433	694
352.78 K, 1000 kPa, x2 = 0.6433	695
352.78 K, 5000 kPa, x2 = 0.6433	699
352.78 K, 10000 kPa, x2 = 0.6433	704
352.78 K, 20000 kPa, x2 = 0.6433	713
352.78 K, 30000 kPa, x2 = 0.6433	721
352.78 K, 40000 kPa, x2 = 0.6433	729
352.79 K, 5000 kPa, x2 = 0.4436	703
352.79 K, 60000 kPa, x2 = 0.6433	742
352.79 K, 79990 kPa, x2 = 0.6433	754
352.79 K, 100000 kPa, x2 = 0.6433	764
352.8 K, 1000 kPa, x2 = 0.4436	699
352.8 K, 10000 kPa, x2 = 0.4436	708
352.8 K, 20000 kPa, x2 = 0.4436	717
352.81 K, 100 kPa, x2 = 0.4436	698
352.81 K, 1000 kPa, x2 = 0.7841	692
352.81 K, 30000 kPa, x2 = 0.4436	725
352.81 K, 40000 kPa, x2 = 0.4436	733
352.81 K, 60000 kPa, x2 = 0.4436	746
352.81 K, 99990 kPa, x2 = 0.4436	767
352.82 K, 100 kPa, x2 = 0.7841	691
352.82 K, 80000 kPa, x2 = 0.4436	757
352.83 K, 5000 kPa, x2 = 0.7841	696
352.84 K, 10000 kPa, x2 = 0.7841	701
352.84 K, 20000 kPa, x2 = 0.7841	711
352.85 K, 30000 kPa, x2 = 0.7841	719
352.85 K, 40000 kPa, x2 = 0.7841	726
352.85 K, 60000 kPa, x2 = 0.7841	740
352.85 K, 80000 kPa, x2 = 0.7841	751
352.85 K, 100000 kPa, x2 = 0.7841	762
362.48 K, 5000 kPa, x2 = 0	704
362.48 K, 10000 kPa, x2 = 0	709
362.48 K, 20000 kPa, x2 = 0	718
362.48 K, 30000 kPa, x2 = 0	726
362.48 K, 50000 kPa, x2 = 0	741
362.48 K, 80000 kPa, x2 = 0	759
362.48 K, 90000 kPa, x2 = 0	764
362.49 K, 100 kPa, x2 = 0	699
362.49 K, 1000 kPa, x2 = 0	700
362.49 K, 40000 kPa, x2 = 0	734
362.49 K, 60000 kPa, x2 = 0	747
362.49 K, 70000 kPa, x2 = 0	753
362.49 K, 100000 kPa, x2 = 0	769
362.57 K, 100 kPa, x2 = 0.2297	695
362.57 K, 1000 kPa, x2 = 0.2297	696
362.58 K, 5000 kPa, x2 = 0.2297	700
362.58 K, 10000 kPa, x2 = 0.2297	705
362.58 K, 20000 kPa, x2 = 0.2297	714
362.58 K, 30000 kPa, x2 = 0.2297	722
362.59 K, 40000 kPa, x2 = 0.2297	730
362.59 K, 60000 kPa, x2 = 0.2297	743
362.59 K, 80000 kPa, x2 = 0.2297	755
362.59 K, 100000 kPa, x2 = 0.2297	765
362.61 K, 100 kPa, x2 = 0.4436	690
362.61 K, 1000 kPa, x2 = 0.4436	691
362.62 K, 100 kPa, x2 = 0.6433	686
362.62 K, 1000 kPa, x2 = 0.6433	687
362.62 K, 5000 kPa, x2 = 0.4436	696
362.62 K, 5000 kPa, x2 = 0.6433	691
362.62 K, 10000 kPa, x2 = 0.4436	701
362.62 K, 10000 kPa, x2 = 0.6433	697
362.62 K, 20000 kPa, x2 = 0.4436	710
362.62 K, 30000 kPa, x2 = 0.4436	719
362.62 K, 40000 kPa, x2 = 0.4436	726
362.62 K, 60000 kPa, x2 = 0.4436	740
362.62 K, 80000 kPa, x2 = 0.4436	752
362.63 K, 20000 kPa, x2 = 0.6433	706
362.63 K, 30000 kPa, x2 = 0.6433	715
362.63 K, 40000 kPa, x2 = 0.6433	722
362.63 K, 60000 kPa, x2 = 0.6433	736
362.63 K, 80000 kPa, x2 = 0.6433	748
362.63 K, 99990 kPa, x2 = 0.6433	758
362.63 K, 100000 kPa, x2 = 0.4436	762
362.64 K, 100 kPa, x2 = 0.7841	682
362.64 K, 1000 kPa, x2 = 0.7841	683
362.65 K, 5000 kPa, x2 = 0.7841	688
362.65 K, 10000 kPa, x2 = 0.7841	693
362.66 K, 20000 kPa, x2 = 0.7841	703
362.66 K, 30000 kPa, x2 = 0.7841	712
362.66 K, 40000 kPa, x2 = 0.7841	719
362.66 K, 60000 kPa, x2 = 0.7841	733
362.66 K, 80000 kPa, x2 = 0.7841	745
362.66 K, 100010 kPa, x2 = 0.7841	756
